Results reported in the supplement of paper PMC10883282.
± gives the standard deviation of the averaged measurements.

System: MES-SA
Experiment: relative viability vs DMSO control (72 h) (fraction); higher = more viable cells
Method in brief: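 Sarcoma cell lines were seeded in 384-well plates at densities chosen for 80–90% confluence, then 24 h later given 2.5 µl of serially diluted compound drawn from source plates spanning 10 mM to 0.0002 mM. They were held 72 h at 37 °C, 5% CO2, with 0.1% DMSO vehicle and a 5 µM positive control included. Relative viability was read with ATPLite as percent growth and averaged over up to triplicate wells. Rescaling placed full at 1 and none at 0.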

| Structure (SMILES) | relative viability (0.00017 µM) | relative viability (0.00051 µM) | relative viability (0.00152 µM) | relative viability (0.00457 µM) | relative viability (0.01372 µM) | relative viability (0.04115 µM) | relative viability (0.1235 µM) | relative viability (0.3704 µM) | relative viability (1.111 µM) | relative viability (3.333 µM) | relative viability (10 µM) |
| --- | --- | --- | --- | --- | --- | --- | --- | --- | --- | --- | --- |
| O=C(Nc1cnn2ccc(N3CCC[C@@H]3c3cc(F)ccc3F)nc12)N1CC[C@H](O)C1 [Larotrectinib] | 0.929 ± 0.024 | 0.932 ± 0.046 | 0.923 ± 0.054 | 0.896 ± 0.056 | 0.931 ± 0.022 | 0.929 ± 0.039 | 0.894 ± 0.073 | 0.897 ± 0.022 | 0.916 ± 0.027 | 0.893 ± 0.048 | 0.877 ± 0.015 |
| COCc1c(-c2cc3cc(C)cc(OC)c3s2)c2c(N)ncnn2c1CN1CCNC(=O)C1 [Rogaratinib] | 0.974 ± 0.012 | 0.9554 ± 0.0066 | 0.943 ± 0.014 | 0.929 ± 0.014 | 0.939 ± 0.025 | 0.949 ± 0.046 | 0.849 ± 0.018 | 0.732 ± 0.02 | 0.664 ± 0.035 | 0.565 ± 0.012 | 0.389 ± 0.019 |
| Cn1cnc2c(F)c(Nc3ccc(Br)cc3F)c(C(=O)NOCCO)cc21 [Binimetinib] | 0.927 ± 0.027 | 0.9232 ± 0.0083 | 0.927 ± 0.017 | 0.894 ± 0.042 | 0.892 ± 0.024 | 0.84 ± 0.025 | 0.793 ± 0.02 | 0.7569 ± 0.0022 | 0.782 ± 0.025 | 0.741 ± 0.037 | 0.735 ± 0.059 |
| Cn1cc(-c2cc3c(N4CCN(c5ncc([C@@](C)(N)c6ccc(F)cc6)cn5)CC4)ncnn3c2)cn1 [Avapritinib] | 0.882 ± 0.024 | 0.867 ± 0.036 | 0.8778 ± 0.0081 | 0.884 ± 0.016 | 0.91 ± 0.016 | 0.902 ± 0.038 | 0.898 ± 0.02 | 0.884 ± 0.018 | 0.795 ± 0.014 | 0.624 ± 0.02 | 0.51 ± 0.011 |
| C[C@]1(O)C[C@@H](c2nc(-c3ccc4ccc(-c5ccccc5)nc4c3)c3c(N)nccn32)C1 [Linsitinib] | 0.983 ± 0.02 | 0.958 ± 0.021 | 0.9582 ± 0.0041 | 0.926 ± 0.015 | 0.962 ± 0.015 | 0.943 ± 0.025 | 0.958 ± 0.035 | 0.898 ± 0.024 | 0.887 ± 0.01 | 0.784 ± 0.0085 | 0.63 ± 0.023 |
| Cc1cc(Nc2ncnc3ccc(NC4=NC(C)(C)CO4)cc23)ccc1Oc1ccn2ncnc2c1 [Tucatinib] | 0.988 ± 0.052 | 0.9678 ± 0.005 | 0.961 ± 0.03 | 0.95 ± 0.022 | 0.948 ± 0.031 | 0.939 ± 0.035 | 0.916 ± 0.013 | 0.89 ± 0.049 | 0.857 ± 0.0086 | 0.796 ± 0.02 | 0.515 ± 0.042 |
| Nc1cc(C(F)(F)F)c(-c2cc(N3CCOCC3)nc(N3CCOCC3)n2)cn1 [Buparlisib] | 0.897 ± 0.012 | 0.902 ± 0.0092 | 0.895 ± 0.011 | 0.932 ± 0.022 | 0.907 ± 0.023 | 0.872 ± 0.022 | 0.811 ± 0.022 | 0.677 ± 0.025 | 0.208 ± 0.01 | 0.0825 ± 0.0014 | 0.037 ± 0.0019 |
| C[C@@H]1CCN(C(=O)CC#N)C[C@@H]1N(C)c1ncnc2[nH]ccc12 [Tofacitinib] | 0.985 ± 0.035 | 0.955 ± 0.064 | 0.96 ± 0.043 | 0.963 ± 0.05 | 0.966 ± 0.033 | 0.976 ± 0.025 | 0.974 ± 0.031 | 0.953 ± 0.028 | 0.952 ± 0.056 | 0.927 ± 0.042 | 0.873 ± 0.049 |
| COc1cc2/c(=N/c3ccc(Br)cc3F)nc[nH]c2cc1OCC1CCN(C)CC1 [Vandetanib] | 0.907 ± 0.02 | 0.925 ± 0.033 | 0.9 ± 0.013 | 0.932 ± 0.041 | 0.909 ± 0.053 | 0.907 ± 0.054 | 0.926 ± 0.022 | 0.909 ± 0.035 | 0.804 ± 0.029 | 0.6028 ± 0.0021 | 0.127 ± 0.0064 |
